Structures can show the parent of a compound that is named as a salt.

For test [1] the following is noted: literature, Medicinal Chemistry, Vol. 5; cited from earlier work.
For test [2], the system named is rats. The test can be described thus: tail flick test in rats. The test is classed as in vivo. Conditions: po, 1 h; rat, p.o., 60 minute post dose interval; read-out: ED50 (95% C.L.), Rat Tail Flick. On the procedure: (§1) Two compounds, N-(4-aminophenethyl)-1,2,3,4-tetrahydro-6,7-dimethoxy-1-methylisoquinoline(Compound No. 1) and its N-methyl derivative (Compound No. 2) were tested for analgesic activity in rats and mice by the oral and subcutaneous routes. In addition, gross behavioral and toxicological effects (as well as general pharmacological profiling) were evaluated in mice by the intraperitoneal route of administration.
In rats, two procedures designed to detect anlgesic acitivity were used: the hot plate test and the tail flick test. In the hot plate test, rats were placed on the surface of a copper plate maintained at 54.5°±1.0° C. and their response latency (again consisting of paw licking or jumping behavior) determined at 60 minutes and again at 30 minutes before drug injection. These response times were again determined 30 and 60 minutes after drug injection and animals whose response latencies were equal to or greater than three seconds over the second pre-treatment trial (i.e., the one done 30 minutes before dosing) were considered protected from the pain. In the tail flick procedure, a high intensity light beam was focused on the blackened portion of the rat's tail and the reaction time, i.e., latency to move its tail, was measured before and 15, 30, 45, 60, 90 and 120 minutes after drug administration. […]

In test [3] the test system is mice. The test can be described thus: hot plate test in mice. Format: in vivo. Conditions: po, 0.5 h; mouse, p.o., 30 minutes before testing, 54.5°±1.0° C.; read-out: ED50 (95% C.L.), Mouse Hot Plate. On the procedure:
as §1
In mice, two test procedures designed to detect analgesic activity were used: the phenyl-benzoquinone (PBQ) writhing test and the hot plate test. In the PBQ procedure, the drugs were injected 15 minutes before an intraperitoneal injection of PBQ was made for the subcutaneous studies and 30 minutes before the PBQ for the oral studies. […] In the hot plate test, subjects were placed on the surface of a hot copper plate maintained at 54.5°±1.0° C. For the oral studies drugs were injected 30 minutes before testing on the hot plate. Drugged animals whose reaction time (consisting of paw licking or jumping behavior) was equal to or greater than 2 seconds over the average of an untreated control group of mice were considered to be protected from the pain.

Test [4] has as its system mice. The test can be described thus: phenyl-benzoquinone (PBQ) writhing test. The test is classed as in vivo, mouse. On the procedure: as §1
In mice, two test procedures designed to detect analgesic activity were used: the phenyl-benzoquinone (PBQ) writhing test and the hot plate test. […] […] In the hot plate test, subjects were placed on the surface of a hot copper plate maintained at 54.5°±1.0° C. For the oral studies drugs were injected 30 minutes before testing on the hot plate. Drugged animals whose reaction time (consisting of paw licking or jumping behavior) was equal to or greater than 2 seconds over the average of an untreated control group of mice were considered to be protected from the pain.
(An intraperitoneal irritant provokes the stretching counted in writhing tests.)

The subject of test [5] is rats. Briefly: hot plate test in rats. Conditions: 1 h, rat, 60 minute post dose interval, 54.5°±1.0° C., read-out: ED50 (95% C.L.), Rat Hot Plate. Format: in vivo. The method, then:
as §1
In rats, two procedures designed to detect anlgesic acitivity were used: the hot plate test and the tail flick test. In the hot plate test, rats were placed on the surface of a copper plate maintained at 54.5°±1.0° C. and their response latency (again consisting of paw licking or jumping behavior) determined at 60 minutes and again at 30 minutes before drug injection. These response times were again determined 30 and 60 minutes after drug injection and animals whose response latencies were equal to or greater than three seconds over the second pre-treatment trial (i.e., the one done 30 minutes before dosing) were considered protected from the pain. In the tail flick procedure, a high intensity light beam was focused on the blackened portion of the rat's tail and the reaction time, i.e., latency to move its tail, was measured before and 15, 30, 45, 60, 90 and 120 minutes after drug administration. A subject was considered protected from the pain stimulus when Po ≥Pr +Pr 2 where Po is the individual post treatment value and Pr, the pretreatment value. The ED50's reported below for both of these procedures were calculated from values obtained at the 60 minute post dose interval.
A general note: In hot-plate and tail-flick tests a longer latency is read as antinociception.

The mark [6] stands for this setting: po, 0.5 h, mouse, p.o., drug 30 minutes before PBQ, read-out: ED50 (95% C.L.), Mouse PBQ.
Setting [7] is: sc, 0.25 h, mouse PBQ assay, s.c., 15 min post dose, table 6, read-out: Analgesic activity, s.c. ED50 at 15 min post dose.
[8] abbreviates: sc, 0.25 h, mouse, s.c., drug 15 minutes before PBQ, table 5, read-out: ED50 (95% C.L.), Mouse PBQ.
Where [9] appears, read: sc, 0.75 h, mouse PBQ assay, s.c., 45 min post dose, table 6, read-out: Analgesic activity, s.c. ED50 at 45 min post dose.

Consider `COc1cc2c(cc1OC)C(C)N(CCc1ccc(Cl)cc1)CC2` (stereo not drawn), for which the “analgesic properties / activity reported by Brossi et al” value in test [1] is “reported not to exhibit analgesic properties”.
For the compound `COc1cc2c(cc1OC)C(C)N(CCc1ccc(N)cc1)CC2` (stereo not drawn) [Example 1, N-(4-aminophenethyl)-1,2,3,4-tetrahydro-6,7-dimethoxy-1-methylisoquinoline], the ED50 (in general, the midpoint of the dose-response relation) is approximately 31.6 mg/kg in test [2]; 25.7 mg/kg in test [3]; 48.5 mg/kg in test [4] (setting [6]); 7 mg/kg in test [4] (setting [7]); 3.7 mg/kg in test [4] (setting [8]); 24.2 mg/kg in test [4] (setting [9]). Further, the ED50 in test [5] (po, p.o.) is 30 to 60 mg/kg; in test [5] (sc, s.c.), 35.7 mg/kg.
As for `CNc1ccc(CCN2CCc3cc(OC)c(OC)cc3C2C)cc1.Cl` (stereo not drawn) [Example 2, N-(4-Methylaminophenethyl)-1,2,3,4-tetrahydro-6,7-dimethoxy-1-methylisoquinoline hydrochloride], the ED50 in test [2] is 30 to 60 mg/kg; in test [3], 31.7 mg/kg; in test [4] (setting [6]) it was 42.8 mg/kg; in test [4] (setting [8]), 5.2 mg/kg; in test [5] (po, p.o.), approximately 17.8 mg/kg.
As for `COc1cc2c(cc1OC)C(C)N(CCc1cccc(N)c1)CC2.Cl.Cl` (stereo not drawn) [Example 3, N-(3-Aminophenethyl)-1,2,3,4-tetrahydro-6,7-dimethoxy-1-methylisoquinoline dihydrochloride], the values for the ED50 in test [4] (setting [7]) and in test [4] (setting [9]) were 11.9 mg/kg and 20.2 mg/kg, respectively.
For the compound `COc1cc2c(cc1OC)C(C)N(CCc1ccccc1N)CC2` (stereo not drawn) [Example 4, N-(2-Aminophenethyl-1,2,3,4-tetrahydro-6,7-dimethoxy-1-methylisoquinolinedihydrochloride], the results for the ED50 in test [4] (setting [7]) and in test [4] (setting [9]) were 10.7 mg/kg and 34 mg/kg, respectively.
For `COc1cc2c(cc1OC)C(C)N(CCc1ccc(N(C)C)cc1)CC2.Cl.Cl` (stereo not drawn) [Example 5, N-(4-Dimethylaminophenethyl)-1,2,3,4-tetrahydro-6,7-dimethoxy-1-methylisoquinoline dihydrochloride] the same measures were 27.3 mg/kg and 26.7 mg/kg.
On to `COc1cc2c(cc1OC)C(C)N(CCc1ccc(NC(C)=O)cc1)CC2.Cl` (stereo not drawn) [Example 6, N-(4-Acetamidophenethyl)-1,2,3,4-tetrahydro-6,7-dimethoxy-1-methylisoquinoline hydrochloride], for which the ED50 was 21 mg/kg in test [4] (setting [7]) and 31.6 to 56.2 mg/kg in test [4] (setting [9]).
For the compound `COc1cc2c(cc1OC)CN(CCc1ccc([N+](=O)[O-])cc1)CC2.Cl` [Example 7, N-(4-Nitrophenethyl)-1,2,3,4-tetrahydro-6,7-dimethoxyisoquinoline hydrochloride], the values for the ED50 in test [4] (setting [7]) and in test [4] (setting [9]) were 9 mg/kg and 34 mg/kg, respectively.
For the compound `COc1cc2c(cc1OC)CN(CCc1ccc(N)cc1)CC2.Cl.Cl` [Example 8, N-(4-Aminophenethyl)-1,2,3,4-tetrahydro-6,7-dimethoxyisoquinoline dihydrochloride], the ED50 in test [4] (setting [7]) came to 2.9 mg/kg; in test [4] (setting [9]), 16.2 mg/kg.
Take `COc1ccc2c(c1)CCN(CCc1ccc([N+](=O)[O-])cc1)C2C.Cl.Cl` (stereo not drawn) [Example 9, N-(4-Nitrophenethyl)-1,2,3,4-tetrahydro-6-methoxy-1-methylisoquinoline dihydrochloride]: the ED50 came out at 10.4 mg/kg in test [4] (setting [7]) and 16.4 mg/kg in test [4] (setting [9]).
Turning to `COc1ccc2c(c1)CCN(CCc1ccc(N)cc1)C2C.Cl.Cl` (stereo not drawn) [Example 10, N-(4-Aminophenethyl)-1,2,3,4-tetrahydro-6-methoxy-1-methyl-isoquinoline dihydrochloride], the results for the ED50 in test [4] (setting [7]) and in test [4] (setting [9]) were 6.5 mg/kg and 11.8 mg/kg, respectively.
For `COc1ccc2c(c1)CCN(CCc1ccc(NC=O)cc1)C2C` (stereo not drawn) [Example 11 (N--Formyl), N-(4-Formamidophenethyl)-1,2,3,4-tetrahydro-6-methoxy-1-methylisoquinoline], the ED50 in test [4] (setting [7]) was determined as 3.5 mg/kg; in test [4] (setting [9]), 15.3 mg/kg.
The like results for `CNc1ccc(CCN2CCc3cc(OC)ccc3C2C)cc1.Cl` (stereo not drawn) [Example 11, N-(4-Methylaminophenethyl)-1,2,3,4-tetrahydro-6-methoxy-1-methylisoquinoline hydrochloride] were, in that order, 6 mg/kg and 13.8 mg/kg.
Regarding `COc1cc2c(cc1OC)C(C)N(CCc1ccc(O)cc1)CC2.Cl` (stereo not drawn) [Example 12, N-(4-Hydroxyphenethyl)-1,2,3,4-tetrahydro-6,7-dimethoxy-1-methylisoquinoline hydrochloride], the ED50 in test [4] (setting [7]) was 5.8 mg/kg; in test [4] (setting [9]), 10 to 31.6 mg/kg.
Turning to `COc1cc2c(cc1OC)CN(CCc1ccc(O)cc1)CC2.Cl` [Example 13, N-(4-Hydroxyphenethyl)-1,2,3,4-tetrahydro-6,7-dimethoxyisoquinoline hydrochloride], the values for the ED50 in test [4] (setting [7]) and in test [4] (setting [9]) were 2.8 mg/kg and 22.4 mg/kg, respectively.
Take `COc1cc2c(cc1O)CCN(CCc1ccc(N)cc1)C2C.Cl.Cl` (stereo not drawn) [Example 14, N-(4-Aminophenethyl)-1,2,3,4-tetrahydro-6-hydroxy-7-methoxy-1-methylisoquinoline dihydrochloride]: the ED50 in test [4] (setting [7]) is 7.3 mg/kg; in test [4] (setting [9]), 25.8 mg/kg.
On to `CC1c2cc(O)c(O)cc2CCN1CCc1ccc(N)cc1` (stereo not drawn) [Example 15, N-(4-Aminophenethyl)-1,2,3,4-tetrahydro-6,7-dihydroxy-1-methylisoquinolinedihydrobromide], for which the values for the ED50 in test [4] (setting [7]) and in test [4] (setting [9]) were 25.4 mg/kg and approximately 100 mg/kg, respectively.

The record behind these values is US4766131A, “2-amino (or hydroxy) phenethyl-1,2,3,4-tetrahydroisoquinolines as analgesics” (Pennwalt Corporation, priority 1986, dated 1988).
